The text below walks through data of patent US7687476B2, “Specific inhibitors of acute and chronic inflammation” (priority 2001, dated 2010).

The structures appear in SMILES notation. Entries after “also recorded” stand apart in the source; their conditions may differ.

For experiment [1], the system named is L-cells transfected with E-selectin. As to the kind of experiment: static adhesion of neutrophils to L-cells transfected with E-selectin (myeloperoxidase readout). It is filed as cell-based, human. The settings on record: for adhesion of neutrophils to E-selectin transfected L-cells: preincubation 45 min, adhesion 20 min at 37° C., static assay; for order of potency of lead compounds: proposed from the adhesion experiments. As for the experimental part: L-cells permanently transfected with full-length E-selectin by electroporation. Human neutrophils were isolated from EDTA whole blood by density centrifugation. Purity and total number were determined by standard haematology instruments, L-cells were grown in 96-well microtiter plates.
L-cells and neutrophils were pre-incubated with respective substances for 45 min at 37° C. Neutrophils were then allowed to adhere to L-cells in the presence of different substances for 20 min at 37° C. Non-adherent cells were removed by repeated washings and the number of adherent cells determined by measuring myeloperoxidase content. Since binding of neutrophils to selectin is calcium dependent, EGTA (which chelates calcium) was used as a negative control.
L-cells and neutrophils were preincubated with decreasing concentrations of maltose, fucose, and thymidine (1 mM, 10 μM, 0.1 μM, and 1 nM) for 45 min at 37° C. Neutrophils were then allowed to adhere to L-cells in the presence of respective substances for 20 min at 37° C. Non-adherent cells were removed by repeated washings and the number of adherent cells determined by measuring myeloperoxidase content.
L-cells were grown in 96-well microtiter plates. L-cells and neutrophils were preincubated with decreasing concentrations of EGTA (10 mM, 1 mM, 0.1 mM, 10 μM) for 45 min at 37° C. Neutrophils were then allowed to adhere to L-cells in the presence of EGTA for 20 min at 37° C. Non-adherent cells were removed by repeated washings and the number of adherent cells was determined by measuring myeloperoxidase content.

Experiment [2] deals with TNF stimulated HUVEC. As to the kind of experiment: neutrophil adhesion to TNF stimulated HUVEC. It is filed as cell-based, human. The settings on record: for adhesion of neutrophils to TNF stimulated / activated HUVEC (in words) / inhibition of adhesion of neutrophils to TNF stimulated HUVEC: HUVEC stimulated with TNF 4 h; for inhibition of adhesion of neutrophils to TNF stimulated HUVEC: neutrophils preincubated 30 min at 37° C. As for the experimental part: To further extend the finding from L-cells the binding of neutrophils to TNF activated endothelium (HUVEC) was studied.
Endothelial cells were grown in 96-well microtiter plates to confluence. They were stimulated with TNF for 4 h at 37° C. Isolated neutrophils were incubated for 30 min at 37° C. with respective substances. The endothelial cells were washed after 4 h and 2×10^5 neutrophils were added to each well and the cells were allowed to adhere in the presence of the respective substances.

Experiment [3] has as its target T1, myeloperoxidase (Homo sapiens, UniProt P05164).
T1 construct: endogenous in cells; host or cells: human neutrophils isolated from EDTA whole blood
Description: effect on neutrophil myeloperoxidase activity. It is filed as cell-based. The note with it: neutrophils, 100 μM to 10 nM, 2 hours at 37° C. As for the experimental part: Since the number of adherent neutrophils are calculated by measuring neutrophil myeloperoxidase activity, it could be argued that these substances could have a direct effect on myeloperoxidase activity and thus create a methodological artifact. Neutrophils were incubated with different concentrations of uridine, isomaltitol, and 4-thiouridine (100 μM, 10 μM, 1 μM, 100 nM, 10 nM) for 2 hours at 37° C.

The subject of experiment [4] is E-selectin. Description: cell-ELISA of surface expression of E-selectin on stimulated endothelial cells. The experiment is classed as cell-based, human. The settings on record: simultaneous incubation of endothelium with different concentrations, 4 h at 37° C. The method, then: The substances mentioned above should block the interaction of E-selectin with it's ligand and should not have any effect on cytokine induced up-regulation of adhesion molecules. A cell-ELISA was performed to assess the surface expression of adhesion molecules. Endothelial cells were grown in microtiter plates, stimulated with TNF or IL-1 with or without respective substances for 4 h at 37° C. After stimulation the cells were washed and fixed with formaldehyde. A cell-ELISA was performed in analogy to regular ELISA using primary and secondary antibodies.

The test system of experiment [5] is Colo 201 cells / L-cells transfected with E-selectin. As to the kind of experiment: adhesion of colon cancer cells Colo 201 to L-cells transfected with E-selectin. It is filed as cell-based. The settings on record: E-selectin transfected L-cells (text of b26 says HUVEC). The method, then: Although protein ligands have been characterised for the selectins, they recognise a number of carbohydrate and non-carbohydrate ligands. The hypothesis is that these compounds should block E-selectin-SLe^x interaction. To confirm this it was also tested if these substances can block adhesion of Colo 201 cells to L-cells.

T1 sequence (P05164 279-745 limits assumed): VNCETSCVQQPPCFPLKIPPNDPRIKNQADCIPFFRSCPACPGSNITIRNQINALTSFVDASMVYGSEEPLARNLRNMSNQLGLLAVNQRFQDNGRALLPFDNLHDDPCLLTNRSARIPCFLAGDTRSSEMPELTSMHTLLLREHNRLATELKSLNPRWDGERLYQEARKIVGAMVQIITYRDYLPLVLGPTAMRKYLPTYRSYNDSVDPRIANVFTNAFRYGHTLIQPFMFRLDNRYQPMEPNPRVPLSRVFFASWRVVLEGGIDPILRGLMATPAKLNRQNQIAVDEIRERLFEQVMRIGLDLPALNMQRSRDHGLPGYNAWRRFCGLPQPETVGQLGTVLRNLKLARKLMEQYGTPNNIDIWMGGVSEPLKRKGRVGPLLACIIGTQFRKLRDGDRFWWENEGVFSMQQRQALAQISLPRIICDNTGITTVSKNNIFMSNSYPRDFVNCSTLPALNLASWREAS
T1 sequence (P05164 165-273 limits assumed): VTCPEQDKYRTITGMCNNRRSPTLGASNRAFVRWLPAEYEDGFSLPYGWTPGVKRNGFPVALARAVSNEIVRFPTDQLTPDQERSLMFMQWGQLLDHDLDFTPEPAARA

As for `OC[C@H]1O[C@H](O[C@H]2[C@H](O)[C@@H](O)C(O)O[C@@H]2CO)[C@H](O)[C@@H](O)[C@@H]1O` (mixture of isomers) [Maltose, maltose, reference compound], in experiment [1], the “adhesion of neutrophils to E-selectin transfected L-cells” value is reported as “did not affect the adhesion of neutrophils”.

Consider `O=c1[nH]c(=S)ccn1[C@@H]1O[C@H](CO)[C@@H](O)[C@H]1O` [4-thiouridine], for which, in experiment [1], the “adhesion of neutrophils to E-selectin transfected L-cells” value is on record as “could block adhesion of neutrophils” and the “order of potency of lead compounds” value is 4-thiouridine>isomaltitol>uridine. For the same compound, in experiment [2], the “adhesion of neutrophils to TNF stimulated / activated HUVEC (in words)” value is listed as “dose dependent inhibition” and the “inhibition of adhesion of neutrophils to TNF stimulated HUVEC” value was 60%. Besides, in experiment [2] (TNF stimulated HUVEC), the “concentration level at which the maximal effect on neutrophil adhesion to HUVEC occurs” value is on record as “micromolar levels”. In experiment [3], the myeloperoxidase activity entry is given as “do not affect myeloperoxidase activity”. Further, the “TNF induced up-regulation of E-selectin” value in experiment [4] is listed as “did not affect TNF induced up-regulation of E-selectin”.

For the compound `O=C(O)CN(CCOCCOCCN(CC(=O)O)CC(=O)O)CC(=O)O` [EGTA, reference compound], in experiment [1], the “adhesion of neutrophils to E-selectin transfected L-cells” value is “consistently blocks adhesion of neutrophils; also recorded: dose dependent inhibition of neutrophils adhesion to L-cells”. The “adhesion of neutrophils to TNF stimulated / activated HUVEC (in words)” value in experiment [2] is reported as “blocked adhesion of neutrophils; also recorded: dose dependent inhibition of neutrophils adhesion to activated HUVEC”. The “adhesion of Colo 201 cells” value in experiment [5] is recorded as “blocked adhesion of Colo 201 cells”.

Turning to `C[C@H](O)[C@@H](O)[C@@H](O)[C@H](O)C=O` [fucose, reference compound], the “adhesion of neutrophils to E-selectin transfected L-cells” value in experiment [1] is listed as “did not affect the adhesion of neutrophils”.

With `OC[C@H](O)[C@@H](O)[C@H](O)[C@H](O)CO[C@H]1O[C@H](CO)[C@@H](O)[C@H](O)[C@H]1O` [isomaltitol], in experiment [1], the “adhesion of neutrophils to E-selectin transfected L-cells” value is “could block adhesion of neutrophils” and the “order of potency of lead compounds” value is listed as 4-thiouridine>isomaltitol>uridine. For the same compound, the “inhibition of adhesion of neutrophils to TNF stimulated HUVEC” value in experiment [2] is listed as “roughly 30%”. For the same compound, the myeloperoxidase activity entry in experiment [3] is on record as “do not affect myeloperoxidase activity”.

Take `Cc1cn([C@H]2C[C@H](O)[C@@H](CO)O2)c(=O)[nH]c1=O` [thymidine, reference compound]: the “adhesion of neutrophils to E-selectin transfected L-cells” value in experiment [1] was “did not affect the adhesion of neutrophils”.

Regarding `O=c1ccn([C@@H]2O[C@H](CO)[C@@H](O)[C@H]2O)c(=O)[nH]1` [uridine], in experiment [1], the “adhesion of neutrophils to E-selectin transfected L-cells” value is recorded as “could block adhesion of neutrophils” and the “order of potency of lead compounds” value was 4-thiouridine>isomaltitol>uridine. Also, the myeloperoxidase activity entry in experiment [3] was “do not affect myeloperoxidase activity”.
